Experimental data reported in the NIST ThermoML archive (doi:10.1021/je060271a).
Numbers after ± are expanded uncertainties.

Conditions: 283.14 K, Liquid, Vibrating tube method

Measured: mass density

CCCCCCC(=O)OCC(COC(=O)CCCCCC)(COC(=O)CCCCCC)COC(=O)CCCCCC [pentaerythritol tetraheptanoate]
990.1 ± 1.2 kg/m3: 7045.1 kPa
989.5 ± 1.2 kg/m3: 6055.5 kPa | 6084.6 kPa | 6113.4 kPa | 6223.2 kPa | 6232.9 kPa | 6242.4 kPa | 6263.6 kPa | 6273.3 kPa | 6294.6 kPa | 6325.9 kPa | 6335.9 kPa | 6355.6 kPa | 6367.7 kPa | 6431 kPa | 6440.8 kPa | 6463.6 kPa | 6550.9 kPa
989.4 ± 1.2 kg/m3: 5925.4 kPa | 6028.4 kPa | 6075.2 kPa | 6124.2 kPa | 6133.5 kPa | 6142.8 kPa | 6153.4 kPa | 6162.9 kPa | 6172.4 kPa | 6182.1 kPa | 6193.1 kPa | 6202.5 kPa | 6212.1 kPa | 6254.1 kPa
989.2 ± 1.2 kg/m3: 5889.4 kPa | 5944.2 kPa | 5971.7 kPa | 6000.4 kPa
989.9 ± 1.2 kg/m3: 6746.7 kPa | 6879.7 kPa | 6894 kPa | 6905.9 kPa | 6917.3 kPa | 6929.4 kPa | 6943.4 kPa | 6955.3 kPa | 6967.2 kPa | 6993.5 kPa | 7005.9 kPa | 7072.1 kPa
989.3 ± 1.2 kg/m3: 5880.4 kPa | 5899.2 kPa | 5907.7 kPa | 5916.4 kPa | 5935.4 kPa | 5952.8 kPa | 5962.7 kPa | 5980.7 kPa | 5989.5 kPa | 6009 kPa | 6017.5 kPa | 6037.6 kPa | 6046.5 kPa | 6066.2 kPa | 6094.9 kPa | 6104.1 kPa
990 ± 1.2 kg/m3: 7032.3 kPa
989.6 ± 1.2 kg/m3: 6282.8 kPa | 6304.3 kPa | 6314.1 kPa | 6345.6 kPa | 6377.5 kPa | 6387.7 kPa | 6397.9 kPa | 6410 kPa | 6420.4 kPa | 6452.9 kPa | 6473.8 kPa | 6484 kPa | 6494.6 kPa | 6506.6 kPa | 6517 kPa | 6527.7 kPa | 6607.2 kPa
989.7 ± 1.2 kg/m3: 6540.3 kPa | 6564.2 kPa | 6573.4 kPa | 6583.9 kPa | 6596.7 kPa | 6618.3 kPa | 6631.8 kPa | 6642.5 kPa | 6653 kPa | 6664.1 kPa | 6688.4 kPa | 6699.5 kPa | 6712.6 kPa | 6759.9 kPa | 6771.5 kPa | 6856.3 kPa
989.8 ± 1.2 kg/m3: 6677.7 kPa | 6723.8 kPa | 6735.3 kPa | 6782.8 kPa | 6794.2 kPa | 6807.8 kPa | 6818.9 kPa | 6830.8 kPa | 6844.4 kPa | 6868.3 kPa | 6981.6 kPa | 7020.3 kPa | 7057.7 kPa
